Experimental data: article PMC9309644, “Functional analysis of thermo-sensitive TRPV1 in an aquatic vertebrate, masu salmon (Oncorhynchus masou ishikawae)” (Biochemistry and Biophysics Reports, 2022)

Target: T1, OmTRPV1 (Oncorhynchus masou, UniProt Z9PIN9CDR2)
T1 construct: cDNA cloned from spinal cord into pOX(+) via EcoRI/NotI; forward primer starts at ATG, reverse primer with stop codon; cRNA-injected Xenopus laevis oocytes; S487 and V525 correspond to mammalian S512 and T550
T1 sequence (Z9PIN9CDR2 1-804): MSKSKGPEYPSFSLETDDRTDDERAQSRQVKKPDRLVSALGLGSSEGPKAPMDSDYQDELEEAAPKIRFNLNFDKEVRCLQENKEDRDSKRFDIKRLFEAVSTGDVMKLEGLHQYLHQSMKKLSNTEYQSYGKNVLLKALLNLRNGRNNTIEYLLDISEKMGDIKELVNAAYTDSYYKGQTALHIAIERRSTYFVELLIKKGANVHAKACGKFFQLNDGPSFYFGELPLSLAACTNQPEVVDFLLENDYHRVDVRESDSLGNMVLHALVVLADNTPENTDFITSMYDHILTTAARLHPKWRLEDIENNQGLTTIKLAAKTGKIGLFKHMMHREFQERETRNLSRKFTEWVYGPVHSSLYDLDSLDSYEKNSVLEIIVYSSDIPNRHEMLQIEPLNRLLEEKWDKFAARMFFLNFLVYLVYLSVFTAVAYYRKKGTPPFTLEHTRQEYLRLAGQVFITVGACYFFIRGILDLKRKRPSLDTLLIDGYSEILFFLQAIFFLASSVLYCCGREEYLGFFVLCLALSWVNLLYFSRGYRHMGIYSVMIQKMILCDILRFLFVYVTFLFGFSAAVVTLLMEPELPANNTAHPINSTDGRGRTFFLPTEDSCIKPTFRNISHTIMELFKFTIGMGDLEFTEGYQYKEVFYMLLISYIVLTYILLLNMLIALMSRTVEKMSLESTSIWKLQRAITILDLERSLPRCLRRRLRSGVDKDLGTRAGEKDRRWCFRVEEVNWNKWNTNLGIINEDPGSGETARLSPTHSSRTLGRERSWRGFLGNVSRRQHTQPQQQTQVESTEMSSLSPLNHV
Assay: two-electrode voltage-clamp, Xenopus laevis oocytes
Assay type: cell-based

`COc1cc(CNC(=O)CCCC/C=C/C(C)C)ccc1O` [capsaicin] was tested, and the EC50 was 10.4 µM.
